Laboratory results: ChEMBL document CHEMBL3352292, “i-Motif DNA: structure, stability and targeting with ligands” (Bioorg Med Chem, 2014)

Assays:
[1] = Reduction in bcl-2 expression in human GRANTA-519 cells xenografted in mouse; assay type: functional; conditions: dose or concentration not given here
[2] = Binding affinity to bcl-2 i-Motif DNA (unknown origin) by fluorescence based assay
[3] = Antitumor activity against human GRANTA-519 cells xenografted in mouse assessed as inhibition of tumor growth co-administered with etoposide; assay type: functional
[4] = Binding affinity to human telomeric duplex DNA
Homo sapiens [5] = species: Homo sapiens; assay: Increase in thermal stability of human telomeric i-Motif DNA assessed as change in melting temperature at pH 5.5
[6] = Binding affinity to human telomeric G-quadruplex DNA
Homo sapiens [7] = species: Homo sapiens; assay: Binding to human telomeric i-Motif DNA by fluorescence titration method
Homo sapiens [8] = species: Homo sapiens; assay: Binding affinity to human telomeric G-quadruplex DNA assessed as change in melting temperature by FRET assay
Homo sapiens [9] = species: Homo sapiens; assay: Binding affinity to human telomeric i-Motif DNA assessed as change in melting temperature at pH 6.8 by FRET assay
[10] = Binding affinity to d(C5T3)3C5 i-Motif DNA (unknown origin) by UV titration method

Row | SMILES | Kd [4] [nM] | ΔTm (Homo sapiens [5]) [°C] | Kd [6] [nM] | Kd (Homo sapiens [7]) [nM] | also measured
1 | COc1ccc2c(c1)CN([C@@H](C)[C@H]1CC[C@H]3[C@@H]4CC[C@H]5C[C@@H](O)CC[C@]5(C)[C@H]4CC[C@]13C)CO2 |  |  |  |  | inhibition [1]: 20%; Kd [2]: 1010 nM; TGI [3]: 65%
2 | CC(C)CC[C@H](C)[C@@H]1CC[C@H]2[C@@H]3CC[C@H]4C[C@@H](NC(=O)C[N+]5(C)CCCCC5)CC[C@]4(C)[C@H]3CC[C@@]21C |  |  |  |  | Kd [2]: 490 nM
3 | c1cc2nc3ccc4cc3cc2cc1CNCCNCCNCc1ccc2nc3ccc(cc3cc2c1)CNCCNCCNC4 |  |  |  |  | ΔTm (Homo sapiens [8]): 15 °C; ΔTm (Homo sapiens [9]): 33 °C
4 | CN(C)c1ccc(C(=C2C=CC(=[N+](C)C)C=C2)c2ccc(N(C)C)cc2)cc1 [GENTIAN VIOLET] |  |  |  |  | Kd [10]: 830 nM

Now from value to molecule, other results behind:

Row | Kd [4] [nM] | ΔTm (Homo sapiens [5]) [°C] | Kd [6] [nM] | Kd (Homo sapiens [7]) [nM] | SMILES | also measured
5 | 6700 | 7 | 1600 | 4000 | O=C(Nc1ccc(OCCN2CCCCC2)cc1)c1ccc2ccc3ccc(C(=O)Nc4ccc(OCCN5CCCCC5)cc4)nc3c2n1 | 
6 | 6700 | 7 | 1600 | 4000 | CN(C)CCOc1ccc(NC(=O)c2ccc3ccc4ccc(C(=O)Nc5ccc(OCCN(C)C)cc5)nc4c3n2)cc1 | 
7 | 6700 | 7 | 1600 | 4000 | O=C(Nc1ccc(OCCN2CCCC2)cc1)c1ccc2ccc3ccc(C(=O)Nc4ccc(OCCN5CCCC5)cc4)nc3c2n1 | 
